Results as given in ChEMBL document CHEMBL1121823, “A novel connector linkage applicable in prodrug design” (J Med Chem, 1981).

Legend:
Type in all cases: ADME
[1] = Half-life was determined; conditions: human
[2] = Half-life in aqueous buffer (0.05 M bistris, pH 6.9) in the absence of trypsin was determined at 25 degree C; conditions: aqueous buffer without trypsin
[3] = Half-life in aqueous buffer (0.05 M bistris, pH 6.9) in the presence of trypsin (2.5 ug/ml) was determined at 25 degree C

half-life [2] [h]	half-life [3] [min]	Compound	half-life [1] [min]
–	–	NC(=O)OCc1ccc(N)cc1	1.5
40	11	CC(C)(C)OC(=O)NC(CCCCN)C(=O)Nc1ccc(COC(=O)Nc2ccc([N+](=O)[O-])cc2)cc1 (stereo not drawn)	–
